Tests used:
[1] = tested on: human monocytic cell line THP-1; test: Cell growth inhibition, 72 hr, 96 well microtiter plate; assay type: cell-based; conditions: concentrations of less than 1 µg RA/ml, 72 hr at 37°C
Protocol: (§1) Cells of the human monocytic cell line THP-1 and of the human histiocytic cell line U-937 were inoculated at about 20,000 cells per well in aliquots of eucaryotic cell culture medium contained in wells of a 96 well microtiter plate. The medium in various wells contained different amount of free RA or L-RA (DMPC:DMPG 7:3). The cells were incubated for 72 hr at 37°C and cell growth determined and compared to that of controls without any form of retinoic acid. […] At concentrations of less than 1 µg RA/ml, both preparations inhibited cell growth by over 90%.

tissue transglutaminase = test: Induction of tissue transglutaminase activity in THP-1 cells (marker for monocytic cell differentiation); assay type: cell-based, human; conditions: 0.3 µg/ml or 0.6 µg/ml, 24 hr
[2] = tested on: human red blood cells (RBCs); test: In vitro lysis of human erythrocytes (hemoglobin release, optical density at 550 nm); assay type: cell-based
Protocol: Lysis of human red blood cells (RBCs) was quantitated by measuring the release of hemoglobin in the supernatants by observation of increases in optical density at 550 nanometers (nm), as described previously (Mehta, et al., Biochem. Biophys, Acta., Vol. 770-, pp 230-234 (1984). Free-RA dissolved in dimethyl formamide (DMFA), was added to the RBCs. Results with appropriate solvent controls, empty liposomes, and empty liposomes plus free-drug were also noted. Release of hemoglobin by hypotonic lysis of the same number of human RBCs by water was taken as a 100% positive control, while cells treated with PBS were taken as negative controls.
Preparations of L-RA comprising various lipids were incubated at a concentration of 20 microgram (µg) RA per ml with RBCs in PBS for 4 hr at 37°C.
A further experiment concerning the toxicity over time of free RA and L-RA (DMPC:DMPG-7:3) toward RBC was conducted. Human erythrocytes were incubated at 37°C in PBS with 10 ug/ml free RA or 120 ug/ml L-RA, and RBC lysis monitored over a period of 5 hr. […] When a similar manipulation was performed with L-RA (DMPC:DMPG(7:3)) at a RA concentration of 120 ug/ml, little RBC lysis occurred (e.g., less than 10% after […]).
A study was also conducted concerning the effects upon RBC lysis in 2 hr of free RA and L-RA (DMPC:DMPG(7:3)) at various concentrations. […]

M5076 = test: In vitro sensitivity of M5076 cells to retinoic acid; assay type: cell-based
[3] = tested on: human monocytic leukemia THP-1 cells; test: Morphological change associated with cellular differentiation; assay type: cell-based; conditions: 0.3 µg RA/ml, 72 hr incubation
Protocol: The generally ovate form was retained when the cells were cultured in the absence of any free or liposomal retinoic acid.

[4] = tested on: human histiocytic cell line U-937; test: Cell growth inhibition, 72 hr, 96 well microtiter plate; assay type: cell-based; conditions: retinoic acid concentration of about 10 ug/ml
Protocol: as §1
Cells of the human histiocytic cell line U-937 were distributed and cultured under the same conditions as the THP-1 cells in the prior experiment. […] It should be noted that the U-937 cells were almost completely growth-inhibited by L-RA at a retinoic acid concentration of about 10 ug/ml while this amount of free RA inhibited growth less than 50%.

CD1 mice = test: in vivo; conditions: for Number Animals with seizures / Number Animals alive (72 hr): CD1, mouse, in vivo, iv
Protocol: (§2) The acute toxicity of free and liposomal all-trans retinoic acid was studied in CD1 mice. Free all-trans retinoic acid was prepared as an emulsion in normal saline containing 10% DMSO and 2% Tween 80 at a concentration of 3 to 5 mg/ml. Liposomal all-trans retinoic acid was prepared using a lipid:drug ratio of 15:1. The final concentration of all-trans retinoic acid in the liposomal preparation was 3 mg/ml. Empty liposomes of the same lipid composition (DMPC:DMPG 7:3) were also tested at doses equivalent to 80 mg/kg, 100 mg/kg, and 120 mg/kg of liposomal-all trans retinoic acid. Normal saline containing 10% DMSO and 2% Tween 80 was also tested as a control at a dose equivalent to 50 mg/kg of free all-trans retinoic acid. All drugs tested were injected intravenously via tail vein as a single bolus. The injected volumes of free and liposomal-all-trans retinoic acid were the same for each dose.

in vivo = conditions: mouse, in vivo, iv
Protocol: as §2

THP-1 cells = test: Tumor formation of in vitro treated THP-1 cells injected subcutaneously into mice; assay type: in vivo; conditions: cells treated in vitro for 72 hours, injected subcutaneously into male mice

## CC1=C(/C=C/C(C)=C/C=C/C(C)=C/C(=O)O)C(C)(C)CCC1 [Free RA, all-trans retinoic acid]
[1]
  inhibition of THP-1 cell growth: over 90%
Tissue transglutaminase
  tissue transglutaminase enzymic activity: increased levels of tissue transglutaminase enzymic activity
[2]; 10 ug/ml, 37°C in PBS, between about 1 hr and about 3 hr
  RBC lysis over time: extensively lysed a large majority of the erythrocytes
[2]; between about 5 ug RA/ml and about 30 ug RA/ml, 2 hr
  RBC lysis in 2 hr as a function of concentration: linearly increasing RBC lysis
M5076
  sensitivity of M5076 cell line in in vitro studies: resistant
[3]
  morphological appearance of THP-1 cells: more flattened and spread morphological appearance
[4]
  inhibition at 10 µg/mL: < 50%
CD1 mice; 10 mg/kg
  Number Animals with seizures: 0/6
  Number Animals alive (72 hr): 6/6
CD1 mice; 20 mg/kg
  Number Animals with seizures: 6/6
  Number Animals alive (72 hr): 5/6
CD1 mice; 30 mg/kg
  Number Animals with seizures: 6/6
  Number Animals alive (72 hr): 4/6
CD1 mice; 40 mg/kg
  Number Animals with seizures: 3/3
  Number Animals alive (72 hr): 0/3
CD1 mice; 50 mg/kg
  Number Animals with seizures: 3/3
  Number Animals alive (72 hr): 0/3
CD1 mice; i.v. single bolus, CD1 mice
  maximum non-toxic dose: 10 mg/kg
In vivo
  LD50 at 72 h: 32 mg/kg
THP-1 cells
  tumor development of treated THP-1 cells in mice: failed to develop into tumors

Source: patent EP0621773B1, “FORMULATION AND USE OF CAROTENOIDS IN TREATMENT OF CANCER” (BOARD OF REGENTS THE UNIVERSITY OF TEXAS SYSTEM, priority 1992, dated 1993)
